Tested on: human epidermoid keratinocytes in culture (HaCaT) exposed to UV radiation
Assay: Evaluation of the antioxidant potential: DCFH-DA test
Format: cell-based
Conditions: HaCaT keratinocytes pretreated 24 hours; DCFH-DA 20 μM 30 minutes; 2 J/cm^2 UVA; compound used as 30% solution in water/dipropylene glycol (70/30); preliminary tests
Description: Evaluation of the Antioxidant Potential: DCFH-DA Test
The sodium salt of 3-hydroxy-2-pentylcyclopentane-acetic acid is used as a 30% solution in a water/dipropylene glycol mixture (70/30).
In a model of human epidermoid keratinocytes in culture (HaCaT) exposed to UV radiation, the global oxidative stress effect of the said compound after oxidation of a fluorescent probe (DCFH-DA) is measured.
The use of DCFH-DA as a marker of intracellular global oxidative stress is based on its physicochemical properties. It is a nonionic apolar molecule that is capable of diffusing across cell membranes. Once inside the cell, DCFH-DA is hydrolysed by intracellular esterases to a non-fluorescent compound: DCFH or 2,7-dichlorofluorescine. In the presence of activated oxygen species (H2O2; OH°), DCFH is rapidly oxidized to a highly fluorescent compound: DCF or 2,7-dichlorofluorescein.
HaCaT keratinocytes pretreated with the active agents for 24 hours are rinsed with PBS+ and incubated in the presence of DCFH-DA [20 μM] for 30 minutes at 37° C. in the dark.
After removal of the probe, the cells are exposed to 2 J/cm^2 of UVA (WG335 filter) in the presence of 1 ml/well of PBS+. The DCF fluorescence is evaluated immediately after the UVA exposure, by spectrofluorimetry (excitation 480 nm; emission 530 nm).

CCCCCC1C(O)CCC1CC(=O)[O-].[Na+] (stereo not shown) [sodium salt of 3-hydroxy-2-pentylcyclopentaneacetic acid]
antioxidant potential / protection against oxidative stress (DCF fluorescence): antioxidant potential with protection against oxidative stress
